Measured values published in US10479786B2, “Protein kinase inhibitors” (Princeton Drug Discovery Inc, priority 2016, dated 2019).

Legend:
Assay in all cases: Off-chip Mobility Shift Assay, kinase inhibition
Type in all cases: biochemical
CSK = target: T1, CSK (Homo sapiens, UniProt P41240); conditions: at 10 nM; recombinant CSK
T1 construct: purchased Carna Biosciences, Inc

RET(G691 S) = target: T2, RET(G691 S) (Homo sapiens, UniProt P07949, G691S); conditions: at 10 nM; recombinant RET(G691 S)
T2 construct: purchased Carna Biosciences, Inc

KIT(D816Y) = target: T3, KIT(D816Y) (Homo sapiens, UniProt P10721, D816Y); conditions: at 10 nM; recombinant KIT(D816Y)
T3 construct: purchased Carna Biosciences, Inc

skMLCK = target: T4, skMLCK (Homo sapiens, UniProt Q9H1R3); conditions: at 10 nM; recombinant skMLCK
T4 construct: purchased Carna Biosciences, Inc

PDGFRα(D842V) = target: T5, PDGFRα(D842V) (Homo sapiens, UniProt P16234, D842V); conditions: at 10 nM; recombinant PDGFRα(D842V)
T5 construct: purchased Carna Biosciences, Inc

PDGFRα(T674I) = target: T6, PDGFRα(T674I) (Homo sapiens, UniProt P16234, T674I); conditions: at 10 nM; recombinant PDGFRα(T674I)
T6 construct: purchased Carna Biosciences, Inc

KIT(V654A) = target: T7, KIT(V654A) (Homo sapiens, UniProt P10721, V654A); conditions: at 10 nM; recombinant KIT(V654A)
T7 construct: purchased Carna Biosciences, Inc

EGFR(T790M) = target: T8, EGFR(T790M) (Homo sapiens, UniProt P00533, T790M); conditions: at 10 nM; recombinant EGFR(T790M)
T8 construct: purchased Carna Biosciences, Inc

FGFR2 = target: T9, FGFR2 (Homo sapiens, UniProt P21802); conditions: at 10 nM; recombinant FGFR2
T9 construct: purchased Carna Biosciences, Inc

WNK3 = target: T10, WNK3 (Homo sapiens, UniProt Q9BYP7); conditions: at 10 nM; recombinant WNK3
T10 construct: purchased Carna Biosciences, Inc

RET(M918T) = target: T11, RET(M918T) (Homo sapiens, UniProt P07949, M918T); conditions: at 10 nM; recombinant RET(M918T)
T11 construct: purchased Carna Biosciences, Inc

MET = target: T12, MET (Homo sapiens, UniProt P08581); conditions: at 10 nM; recombinant MET
T12 construct: purchased Carna Biosciences, Inc

ALK = target: T13, ALK (Homo sapiens, UniProt Q9UM73); conditions: at 10 nM; recombinant ALK
T13 construct: purchased Carna Biosciences, Inc

EGFR(T790M/L858R) = target: T14, EGFR(T790M/L858R) (Homo sapiens, UniProt P00533, L858R/T790M); conditions: at 10 nM; recombinant EGFR(T790M/L858R)
T14 construct: purchased Carna Biosciences, Inc

HER4 = target: T15, HER4 (Homo sapiens, UniProt Q15303); conditions: at 10 nM; recombinant HER4
T15 construct: purchased Carna Biosciences, Inc

AurA = target: T16, AurA (Homo sapiens, UniProt O14965); conditions: at 10 nM; recombinant AurA
T16 construct: purchased Carna Biosciences, Inc

EGFR(d746-750/T790M) = target: T17, EGFR(d746-750/T790M) (Homo sapiens, UniProt P00533, DEL746-750/T790M); conditions: at 10 nM; recombinant EGFR(d746-750/T790M)
T17 construct: purchased Carna Biosciences, Inc

EGFR(L861Q) = target: T18, EGFR(L861Q) (Homo sapiens, UniProt P00533, L861Q); conditions: at 10 nM; recombinant EGFR(L861Q)
T18 construct: purchased Carna Biosciences, Inc

EGFR(L858R) = target: T19, EGFR(L858R) (Homo sapiens, UniProt P00533, L858R); conditions: at 10 nM; recombinant EGFR(L858R)
T19 construct: purchased Carna Biosciences, Inc

RET(Y791F) = target: T20, RET(Y791F) (Homo sapiens, UniProt P07949, Y791F); conditions: at 10 nM; recombinant RET(Y791F)
T20 construct: purchased Carna Biosciences, Inc

PDGFRα(V561D) = target: T21, PDGFRα(V561D) (Homo sapiens, UniProt P16234, V561D); conditions: at 10 nM; recombinant PDGFRα(V561D)
T21 construct: purchased Carna Biosciences, Inc

PKD1 = target: T22, PKD1 (Homo sapiens, UniProt Q15139); conditions: at 10 nM; recombinant PKD1
T22 construct: purchased Carna Biosciences, Inc

JAK2 = target: T23, JAK2 (Homo sapiens, UniProt O60674); conditions: at 10 nM; recombinant JAK2
T23 construct: purchased Carna Biosciences, Inc

KIT(D816E) = target: T24, KIT(D816E) (Homo sapiens, UniProt P10721, D816E); conditions: at 10 nM; recombinant KIT(D816E)
T24 construct: purchased Carna Biosciences, Inc

KIT(T670I) = target: T25, KIT(T670I) (Homo sapiens, UniProt P10721, T670I); conditions: at 10 nM; recombinant KIT(T670I)
T25 construct: purchased Carna Biosciences, Inc

EGFR(d746-750) = target: T26, EGFR(d746-750) (Homo sapiens, UniProt P00533, DEL746-750); conditions: at 10 nM; recombinant EGFR(d746-750)
T26 construct: purchased Carna Biosciences, Inc

JAK3 = target: T27, JAK3 (Homo sapiens, UniProt P52333); conditions: at 10 nM; recombinant JAK3
T27 construct: purchased Carna Biosciences, Inc

JAK1 = target: T28, JAK1 (Homo sapiens, UniProt P23458); conditions: at 10 nM; recombinant JAK1
T28 construct: purchased Carna Biosciences, Inc

RET = target: T29, RET (Homo sapiens, UniProt P07949); conditions: at 10 nM; recombinant RET
T29 construct: purchased Carna Biosciences, Inc

DDR1 = target: T30, DDR1 (Homo sapiens, UniProt Q08345); conditions: at 10 nM; recombinant DDR1
T30 construct: purchased Carna Biosciences, Inc

LYNb = target: T31, LYNb (Homo sapiens, UniProt P07948); conditions: at 1 nM; recombinant LYNb
T31 construct: purchased Carna Biosciences, Inc

ABL(T315I) = target: T32, ABL(T315I) (Homo sapiens, UniProt P00519, T315I); conditions: at 1 nM; recombinant ABL(T315I)
T32 construct: purchased Carna Biosciences, Inc

T26 sequence (P00533 with tags, fused parts or gaps DEL746-750 limits assumed): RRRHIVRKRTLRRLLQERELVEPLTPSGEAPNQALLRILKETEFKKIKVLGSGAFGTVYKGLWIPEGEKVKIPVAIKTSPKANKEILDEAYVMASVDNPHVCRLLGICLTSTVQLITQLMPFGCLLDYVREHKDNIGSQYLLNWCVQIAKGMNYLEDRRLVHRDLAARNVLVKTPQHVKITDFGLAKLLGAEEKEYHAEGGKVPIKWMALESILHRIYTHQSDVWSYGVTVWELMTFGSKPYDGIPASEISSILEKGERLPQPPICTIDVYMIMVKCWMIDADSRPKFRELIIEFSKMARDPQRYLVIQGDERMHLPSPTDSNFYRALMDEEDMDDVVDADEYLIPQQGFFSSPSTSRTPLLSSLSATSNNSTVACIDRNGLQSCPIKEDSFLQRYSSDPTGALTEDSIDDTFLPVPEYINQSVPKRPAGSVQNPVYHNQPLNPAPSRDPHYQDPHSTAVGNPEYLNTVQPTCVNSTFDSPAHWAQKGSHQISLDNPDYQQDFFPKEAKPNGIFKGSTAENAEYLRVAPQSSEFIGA
T24 sequence (P10721 26-976 D816E): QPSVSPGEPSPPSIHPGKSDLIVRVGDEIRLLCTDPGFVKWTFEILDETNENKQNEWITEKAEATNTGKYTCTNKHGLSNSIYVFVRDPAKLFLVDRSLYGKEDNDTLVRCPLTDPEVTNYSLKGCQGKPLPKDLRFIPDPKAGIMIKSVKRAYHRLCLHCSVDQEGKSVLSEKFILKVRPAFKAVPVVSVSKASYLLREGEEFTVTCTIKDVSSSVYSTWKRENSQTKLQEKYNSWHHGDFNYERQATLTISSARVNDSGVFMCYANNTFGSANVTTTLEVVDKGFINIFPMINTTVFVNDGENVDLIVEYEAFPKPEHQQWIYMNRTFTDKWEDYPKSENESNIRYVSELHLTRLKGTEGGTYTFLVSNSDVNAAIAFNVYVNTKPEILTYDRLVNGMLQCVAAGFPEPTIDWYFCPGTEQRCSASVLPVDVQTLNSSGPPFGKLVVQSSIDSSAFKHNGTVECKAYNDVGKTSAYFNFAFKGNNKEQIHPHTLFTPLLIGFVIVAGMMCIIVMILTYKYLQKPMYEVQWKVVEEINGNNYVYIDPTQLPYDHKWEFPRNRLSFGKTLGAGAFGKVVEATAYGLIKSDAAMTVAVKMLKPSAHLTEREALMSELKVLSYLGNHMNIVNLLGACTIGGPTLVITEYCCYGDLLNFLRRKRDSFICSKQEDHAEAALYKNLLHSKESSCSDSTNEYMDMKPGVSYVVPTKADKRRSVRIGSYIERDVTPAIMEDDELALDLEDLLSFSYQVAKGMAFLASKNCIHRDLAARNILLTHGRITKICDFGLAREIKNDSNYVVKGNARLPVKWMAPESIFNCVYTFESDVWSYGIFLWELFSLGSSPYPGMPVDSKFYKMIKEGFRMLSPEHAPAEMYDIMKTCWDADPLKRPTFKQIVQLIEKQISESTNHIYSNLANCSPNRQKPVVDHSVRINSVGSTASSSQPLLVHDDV
T20 sequence (P07949 29-1114 Y791F): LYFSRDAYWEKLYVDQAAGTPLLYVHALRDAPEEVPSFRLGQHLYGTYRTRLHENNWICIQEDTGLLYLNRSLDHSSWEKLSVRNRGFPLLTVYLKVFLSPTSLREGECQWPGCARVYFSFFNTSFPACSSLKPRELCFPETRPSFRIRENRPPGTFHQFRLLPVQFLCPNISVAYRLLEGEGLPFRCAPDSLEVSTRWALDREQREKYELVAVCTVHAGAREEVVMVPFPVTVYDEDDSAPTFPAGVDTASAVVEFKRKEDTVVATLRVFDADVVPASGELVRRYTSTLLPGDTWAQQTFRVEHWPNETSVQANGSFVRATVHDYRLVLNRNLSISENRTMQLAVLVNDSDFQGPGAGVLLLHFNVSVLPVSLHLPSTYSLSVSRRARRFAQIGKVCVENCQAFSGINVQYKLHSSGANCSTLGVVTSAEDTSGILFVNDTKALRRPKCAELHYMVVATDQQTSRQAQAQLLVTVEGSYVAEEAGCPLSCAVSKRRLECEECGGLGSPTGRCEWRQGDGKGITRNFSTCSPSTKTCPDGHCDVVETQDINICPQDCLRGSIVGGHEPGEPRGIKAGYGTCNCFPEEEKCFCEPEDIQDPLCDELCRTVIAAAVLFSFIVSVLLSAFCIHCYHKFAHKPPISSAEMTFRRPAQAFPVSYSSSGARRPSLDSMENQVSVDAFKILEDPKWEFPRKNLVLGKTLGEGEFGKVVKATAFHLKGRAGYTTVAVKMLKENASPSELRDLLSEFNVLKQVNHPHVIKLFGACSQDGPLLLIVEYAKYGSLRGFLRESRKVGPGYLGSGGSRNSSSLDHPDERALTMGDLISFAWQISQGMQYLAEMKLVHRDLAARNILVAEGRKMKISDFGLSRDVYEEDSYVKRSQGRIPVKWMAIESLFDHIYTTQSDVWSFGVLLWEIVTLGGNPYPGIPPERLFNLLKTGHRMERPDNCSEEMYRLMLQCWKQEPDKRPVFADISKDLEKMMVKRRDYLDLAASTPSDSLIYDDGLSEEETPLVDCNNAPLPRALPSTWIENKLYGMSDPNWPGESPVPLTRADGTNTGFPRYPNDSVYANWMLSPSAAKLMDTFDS
T6 sequence (P16234 24-1089 T674I): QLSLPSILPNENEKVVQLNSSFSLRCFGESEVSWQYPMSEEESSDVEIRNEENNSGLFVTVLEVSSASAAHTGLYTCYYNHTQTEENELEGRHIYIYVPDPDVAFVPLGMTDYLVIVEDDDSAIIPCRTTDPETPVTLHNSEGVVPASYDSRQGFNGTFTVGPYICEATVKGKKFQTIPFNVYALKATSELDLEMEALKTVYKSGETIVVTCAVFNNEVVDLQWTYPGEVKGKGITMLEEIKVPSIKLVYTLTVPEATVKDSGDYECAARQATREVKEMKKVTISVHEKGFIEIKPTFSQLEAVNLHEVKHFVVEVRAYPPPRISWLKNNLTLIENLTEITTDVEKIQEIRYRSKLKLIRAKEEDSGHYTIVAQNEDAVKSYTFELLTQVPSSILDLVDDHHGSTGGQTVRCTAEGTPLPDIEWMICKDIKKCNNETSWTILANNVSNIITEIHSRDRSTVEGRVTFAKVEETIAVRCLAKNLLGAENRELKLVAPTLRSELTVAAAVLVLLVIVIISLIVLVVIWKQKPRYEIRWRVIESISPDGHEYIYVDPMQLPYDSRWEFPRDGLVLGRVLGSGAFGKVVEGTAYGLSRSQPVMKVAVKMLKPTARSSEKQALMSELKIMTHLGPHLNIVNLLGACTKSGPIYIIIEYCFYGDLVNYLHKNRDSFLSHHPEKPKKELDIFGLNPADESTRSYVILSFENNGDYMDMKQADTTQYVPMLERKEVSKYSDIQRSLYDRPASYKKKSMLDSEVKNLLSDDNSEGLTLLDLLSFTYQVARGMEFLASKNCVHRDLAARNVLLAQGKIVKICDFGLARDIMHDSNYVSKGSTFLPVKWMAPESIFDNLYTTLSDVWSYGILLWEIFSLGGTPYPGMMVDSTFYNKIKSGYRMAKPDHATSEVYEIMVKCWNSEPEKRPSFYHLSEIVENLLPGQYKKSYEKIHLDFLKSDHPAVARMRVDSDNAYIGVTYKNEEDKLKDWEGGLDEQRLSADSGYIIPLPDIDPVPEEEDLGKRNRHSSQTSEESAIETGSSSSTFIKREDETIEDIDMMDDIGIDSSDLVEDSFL
T27 sequence (P52333 whole entry): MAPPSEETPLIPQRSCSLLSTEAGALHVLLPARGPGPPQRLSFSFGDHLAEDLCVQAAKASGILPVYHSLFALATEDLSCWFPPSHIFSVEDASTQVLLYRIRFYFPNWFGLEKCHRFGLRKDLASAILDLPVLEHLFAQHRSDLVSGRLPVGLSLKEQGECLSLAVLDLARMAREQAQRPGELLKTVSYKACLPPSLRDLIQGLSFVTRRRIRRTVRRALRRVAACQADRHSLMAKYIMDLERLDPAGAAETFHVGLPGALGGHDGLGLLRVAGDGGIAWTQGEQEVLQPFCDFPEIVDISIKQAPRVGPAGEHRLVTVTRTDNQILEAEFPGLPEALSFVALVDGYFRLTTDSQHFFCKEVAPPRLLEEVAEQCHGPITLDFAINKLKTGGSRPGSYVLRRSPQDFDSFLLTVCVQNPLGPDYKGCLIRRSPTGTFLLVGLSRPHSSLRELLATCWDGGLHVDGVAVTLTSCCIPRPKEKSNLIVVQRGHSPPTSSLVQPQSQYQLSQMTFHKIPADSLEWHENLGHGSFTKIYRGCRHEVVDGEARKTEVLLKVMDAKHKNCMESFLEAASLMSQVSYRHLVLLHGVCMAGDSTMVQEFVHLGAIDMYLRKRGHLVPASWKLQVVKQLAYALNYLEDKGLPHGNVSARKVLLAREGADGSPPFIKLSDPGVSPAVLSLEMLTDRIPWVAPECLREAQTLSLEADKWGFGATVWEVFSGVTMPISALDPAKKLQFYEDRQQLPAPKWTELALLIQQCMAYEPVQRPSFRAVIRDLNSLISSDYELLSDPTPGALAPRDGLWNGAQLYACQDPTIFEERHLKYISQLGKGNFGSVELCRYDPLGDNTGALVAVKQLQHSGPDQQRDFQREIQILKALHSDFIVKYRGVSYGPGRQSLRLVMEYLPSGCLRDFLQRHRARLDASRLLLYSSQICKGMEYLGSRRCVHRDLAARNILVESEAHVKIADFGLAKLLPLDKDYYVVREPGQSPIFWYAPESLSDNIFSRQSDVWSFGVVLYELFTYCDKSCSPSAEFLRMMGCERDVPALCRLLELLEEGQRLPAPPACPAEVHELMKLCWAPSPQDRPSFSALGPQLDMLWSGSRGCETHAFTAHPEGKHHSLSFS
T5 sequence (P16234 24-1089 D842V): as the sequence (P16234 24-1089 T674I) above, with I651T, D819V counted along it
T2 sequence (P07949 29-1114 G691S): as the sequence (P07949 29-1114 Y791F) above, with G663S, F763Y counted along it
T11 sequence (P07949 29-1114 M918T): as the sequence (P07949 29-1114 Y791F) above, with F763Y, M890T counted along it
T29 sequence (P07949 29-1114): as the sequence (P07949 29-1114 Y791F) above, with F763Y counted along it
T7 sequence (P10721 26-976 V654A): as the sequence (P10721 26-976 D816E) above, with V629A, E791D counted along it
T3 sequence (P10721 26-976 D816Y): as the sequence (P10721 26-976 D816E) above, with E791Y counted along it
T25 sequence (P10721 26-976 T670I): as the sequence (P10721 26-976 D816E) above, with T645I, E791D counted along it

[2H]c1cc(C)c(NC(=O)c2cnc(Nc3cc(N4CCCCC4)nc(C)n3)s2)c(Cl)c1 [Compound I, N-(2-chloro-4-deuterio-6-methyl-phenyl)-2-[[2-methyl-6-(1-piperidyl)pyrimidin-4-yl]amino]thiazole-5-carboxamide]
< 50%: inhibition at 0.01 µM (RET(G691 S)) | inhibition at 0.01 µM (skMLCK) | inhibition at 0.01 µM (PDGFRα(D842V)) | inhibition at 0.01 µM (PDGFRα(T674I)) | inhibition at 0.01 µM (KIT(V654A)) | inhibition at 0.01 µM (EGFR(T790M)) | inhibition at 0.01 µM (FGFR2) | inhibition at 0.01 µM (WNK3) | inhibition at 0.01 µM (RET(M918T)) | inhibition at 0.01 µM (MET) | inhibition at 0.01 µM (ALK) | inhibition at 0.01 µM (EGFR(T790M/L858R)) | inhibition at 0.01 µM (HER4) | inhibition at 0.01 µM (AurA) | inhibition at 0.01 µM (EGFR(d746-750/T790M)) | inhibition at 0.01 µM (EGFR(L861Q)) | inhibition at 0.01 µM (EGFR(L858R)) | inhibition at 0.01 µM (RET(Y791F)) | inhibition at 0.01 µM (PDGFRα(V561D)) | inhibition at 0.01 µM (PKD1) | inhibition at 0.01 µM (JAK2) | inhibition at 0.01 µM (KIT(D816E)) | inhibition at 0.01 µM (KIT(T670I)) | inhibition at 0.01 µM (EGFR(d746-750)) | inhibition at 0.01 µM (JAK3) | inhibition at 0.01 µM (JAK1) | inhibition at 0.01 µM (RET) | inhibition at 0.01 µM (DDR1)
> 50%: inhibition at 0.01 µM (CSK) | inhibition at 0.01 µM (KIT(D816Y))

[2H]c1cc(C)c(NC(=O)c2cnc(Nc3cc(N4CCC(O)CC4)nc(C)n3)s2)c(Cl)c1 [Compound II, N-(2-chloro-4-deuterio-6-methyl-phenyl)-2-[[6-(4-hydroxy-1-piperidyl)-2-methyl-pyrimidin-4-yl]amino]thiazole-5-carboxamide]
> 50%: inhibition at 0.001 µM (LYNb)
< 50%: inhibition at 0.001 µM (ABL(T315I))
